Laboratory results as given in ChEMBL document CHEMBL1201862, “PubChem BioAssay data set” (2004).
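Cells were grown in 96-well plates and exposed to each compound for 48 hours at five concentrations; endpoints were interpolated linearly between bracketing concentrations, or set to the highest concentration if not reached. GI50 = concentration required for 50% inhibition of growth.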 The source made the active and inactive calls. No stated cut-off is given here; in the data, active = GI50 up to about 1.1 µM and inactive = higher.

Assays:
Test in all cases: NCI anticancer screen, dose series, 48 h
786-0 = tested on: 786-0
A498 = tested on: A498
A549 = tested on: A549
ACHN = tested on: ACHN
CAKI-1 = tested on: CAKI-1
CCRF-CEM = tested on: CCRF-CEM
DU-145 = tested on: DU-145
HCC 2998 = tested on: HCC 2998
MCF7 = tested on: MCF7
Malme-3M = tested on: Malme-3M
OVCAR-4 = tested on: OVCAR-4
OVCAR-5 = tested on: OVCAR-5
OVCAR-8 = tested on: OVCAR-8
RXF 393 = tested on: RXF 393
SF-539 = tested on: SF-539
SK-MEL-28 = tested on: SK-MEL-28
SN12C = tested on: SN12C
SR = tested on: SR
SW-620 = tested on: SW-620
U-251 = tested on: U-251

Compound | GI50 (786-0) | GI50 (A498) | GI50 (A549) | GI50 (ACHN) | GI50 (CAKI-1) | GI50 (CCRF-CEM) | GI50 (DU-145) | GI50 (HCC 2998) | GI50 (MCF7) | GI50 (Malme-3M) | GI50 (OVCAR-4) | GI50 (OVCAR-5) | GI50 (OVCAR-8) | GI50 (RXF 393) | GI50 (SF-539) | GI50 (SK-MEL-28) | GI50 (SN12C) | GI50 (SR) | GI50 (SW-620) | GI50 (U-251)
O=[N+]([O-])c1ccccc1OCCOc1ccccc1[N+](=O)[O-] | > 100 µM (inactive) | > 100 µM (inactive) | > 100 µM (inactive) | > 100 µM (inactive) | > 100 µM (inactive) | > 100 µM (inactive) | > 100 µM (inactive) | > 100 µM (inactive) | > 100 µM (inactive) | > 100 µM (inactive) | > 100 µM (inactive) | > 100 µM (inactive) | 64.6 µM (inactive) | > 100 µM (inactive) | > 100 µM (inactive) | > 100 µM (inactive) | > 100 µM (inactive) | > 100 µM (inactive) | > 100 µM (inactive) | > 100 µM (inactive)
COC(=O)C1=C(C(=O)OC)C2OC1c1cc3ccccc3cc12 | 1.76 µM (inactive) | 21.1 µM (inactive) | 18.7 µM (inactive) | 1.63 µM (inactive) | 2.05 µM (inactive) | 1.69 µM (inactive) | 7.78 µM (inactive) | 6.34 µM (inactive) | 8.89 µM (inactive) | 2.5 µM (inactive) | 1.78 µM (inactive) | 4.88 µM (inactive) | 4.49 µM (inactive) | 1.77 µM (inactive) | 6.27 µM (inactive) | 2 µM (inactive) | 16.4 µM (inactive) | 1.88 µM (inactive) | 1.96 µM (inactive) | 17.3 µM (inactive)
O=[N+]([O-])c1cc2ccc(N(CCO)CCO)nc2nc1N(CCO)CCO | > 100 µM (inactive) | > 100 µM (inactive) | > 100 µM (inactive) | > 100 µM (inactive) | > 100 µM (inactive) | > 100 µM (inactive) | > 100 µM (inactive) | > 100 µM (inactive) | > 100 µM (inactive) | > 100 µM (inactive) | > 100 µM (inactive) | > 100 µM (inactive) | > 100 µM (inactive) | > 100 µM (inactive) | > 100 µM (inactive) | > 100 µM (inactive) | > 100 µM (inactive) | 46.2 µM (inactive) | > 100 µM (inactive) | > 100 µM (inactive)
Clc1ccc(Cl)c(NNc2cc(Cl)ccc2Cl)c1 | > 10 µM (inactive) | > 10 µM (inactive) | 6.67 µM (inactive) | 2.84 µM (inactive) | > 10 µM (inactive) | 3.63 µM (inactive) | 5.37 µM (inactive) | 7.03 µM (inactive) | 7.74 µM (inactive) | 3.82 µM (inactive) | 4.95 µM (inactive) | > 10 µM (inactive) | 7.64 µM (inactive) | 6.22 µM (inactive) | > 10 µM (inactive) | 6.38 µM (inactive) | 4.07 µM (inactive) | 8.81 µM (inactive) | > 10 µM (inactive) | 7.59 µM (inactive)
O=C1CC(=O)NC(NN2C(=O)/C(=C/c3ccccc3)N=C2c2ccccc2)=N1 | > 100 µM (inactive) | > 100 µM (inactive) | > 100 µM (inactive) | > 100 µM (inactive) | > 100 µM (inactive) | > 100 µM (inactive) | > 100 µM (inactive) | > 100 µM (inactive) | > 100 µM (inactive) | > 100 µM (inactive) | > 100 µM (inactive) | > 100 µM (inactive) | > 100 µM (inactive) | > 100 µM (inactive) | > 100 µM (inactive) | > 100 µM (inactive) | > 100 µM (inactive) | > 100 µM (inactive) | > 100 µM (inactive) | > 100 µM (inactive)
O=C(C(=O)n1ccc2ccccc21)n1ccc2ccccc21 | 91.6 µM (inactive) | > 100 µM (inactive) | 83.2 µM (inactive) | > 100 µM (inactive) | > 100 µM (inactive) | 38.7 µM (inactive) | > 100 µM (inactive) | > 100 µM (inactive) | > 100 µM (inactive) | > 100 µM (inactive) | 29 µM (inactive) | > 100 µM (inactive) | 59.7 µM (inactive) | 88.7 µM (inactive) | 37 µM (inactive) | > 100 µM (inactive) | > 100 µM (inactive) | 40.1 µM (inactive) | > 100 µM (inactive) | 63.4 µM (inactive)
O=[N+]([O-])/C(C(Cl)=C(Cl)Cl)=C(/Cl)Sc1ccccc1 | 1.31 µM (inactive) | 2 µM (inactive) | 3.6 µM (inactive) | 2.08 µM (inactive) | 2.51 µM (inactive) | 0.185 µM (active) | 3.32 µM (inactive) | 2.7 µM (inactive) | 1.43 µM (inactive) | 1.6 µM (inactive) | 1.62 µM (inactive) | 2 µM (inactive) | 0.255 µM (active) | 2.62 µM (inactive) | 1.99 µM (inactive) | 1.72 µM (inactive) | 1.81 µM (inactive) | 0.378 µM (active) | 0.307 µM (active) | 2.25 µM (inactive)
Cc1cn([C@@H]2C[C@H]2CO)c(=O)[nH]c1=O | > 100 µM (inactive) | > 100 µM (inactive) | > 100 µM (inactive) | > 100 µM (inactive) | > 100 µM (inactive) | > 100 µM (inactive) | > 100 µM (inactive) | > 100 µM (inactive) | > 100 µM (inactive) | > 100 µM (inactive) | > 100 µM (inactive) | > 100 µM (inactive) | > 100 µM (inactive) | > 100 µM (inactive) | 57 µM (inactive) | > 100 µM (inactive) | > 100 µM (inactive) | > 100 µM (inactive) | > 100 µM (inactive) | > 100 µM (inactive)
C=CCNC1=C2C[C@@H](C)C[C@@H](OC)[C@H](OC(=O)CN(C)C)[C@H](C)/C=C(\C)[C@@H](OC(N)=O)[C@H](OC)/C=C\C=C(/C)C(=O)NC(=CC1=O)C2=O | 0.671 µM (active) | 0.262 µM (active) | 0.0562 µM (active) | 0.802 µM (active) | 1.29 µM (inactive) | 3.08 µM (inactive) | < 0.01 µM (active) | 0.0434 µM (active) | 0.0245 µM (active) | 0.0409 µM (active) | 3.41 µM (inactive) | 10.3 µM (inactive) | 0.163 µM (active) | 1.78 µM (inactive) | 0.071 µM (active) | 0.0897 µM (active) | 0.0689 µM (active) | < 0.0113 µM (active) | 0.0228 µM (active) | 0.188 µM (active)
CCc1ccccc1NNc1cc(=O)[nH]c(=O)[nH]1 | 16.6 µM (inactive) | 21.2 µM (inactive) | 24.5 µM (inactive) | 16.9 µM (inactive) | 4.09 µM (inactive) | 26.5 µM (inactive) | 46.2 µM (inactive) | 16.6 µM (inactive) | 19.4 µM (inactive) | > 10 µM (inactive) | 20.3 µM (inactive) | 22 µM (inactive) | 23.4 µM (inactive) | 22.2 µM (inactive) | 22.6 µM (inactive) | 18.1 µM (inactive) | 18.8 µM (inactive) | 30.5 µM (inactive) | 18.6 µM (inactive) | 17.4 µM (inactive)
C=C1C(=O)O[C@@H]2C[C@@]3(C)CCCC(=C)[C@@H]3C[C@H]12.C=C1C(=O)O[C@@H]2C[C@@]3(C)CCC[C@H](C)C3=C[C@H]12 | 1.43 µM (inactive) | 1.71 µM (inactive) | 5.12 µM (inactive) | 2.55 µM (inactive) | 1.69 µM (inactive) | 1.51 µM (inactive) | 2.77 µM (inactive) | 5.85 µM (inactive) | 1.73 µM (inactive) | 0.731 µM (active) | 2.7 µM (inactive) | 4.82 µM (inactive) | 1.6 µM (inactive) | 1.56 µM (inactive) | 2.13 µM (inactive) | 1.78 µM (inactive) | 1.69 µM (inactive) | 0.494 µM (active) | 1.64 µM (inactive) | 3.63 µM (inactive)
CC(=O)NC1C(OCc2ccccc2)OC(CO)C(O)C1OC(C)C(=O)NC(C(=O)NC(CCC(=O)Nc1ccc2c(c1)CN1C(=O)c3ccccc3C1=N2)C(N)=O)C(C)C (stereo not given) | > 100 µM (inactive) | > 100 µM (inactive) | > 100 µM (inactive) | > 100 µM (inactive) | > 100 µM (inactive) | > 100 µM (inactive) | > 100 µM (inactive) | > 100 µM (inactive) | > 100 µM (inactive) | > 100 µM (inactive) | > 100 µM (inactive) | > 100 µM (inactive) | > 100 µM (inactive) | > 100 µM (inactive) | > 100 µM (inactive) | > 100 µM (inactive) | > 100 µM (inactive) | > 100 µM (inactive) | > 100 µM (inactive) | > 100 µM (inactive)
Oc1c(/N=N/c2ccccc2)c2ccccc2c2ccc3ccccc3c12 | 44.6 µM (inactive) | > 100 µM (inactive) | 43.2 µM (inactive) | 55.3 µM (inactive) | 48.6 µM (inactive) | 43.9 µM (inactive) | > 100 µM (inactive) | > 100 µM (inactive) | > 100 µM (inactive) | 48.3 µM (inactive) | 33.2 µM (inactive) | > 100 µM (inactive) | 76.6 µM (inactive) | 56.1 µM (inactive) | 34.5 µM (inactive) | > 100 µM (inactive) | > 100 µM (inactive) | 17.9 µM (inactive) | > 100 µM (inactive) | 39.6 µM (inactive)
Nc1nc(OCC2CCCCC2)c2nc[nH]c2n1 | 17 µM (inactive) | 13.7 µM (inactive) | 15.5 µM (inactive) | 1.3 µM (inactive) | 7.24 µM (inactive) | 11.2 µM (inactive) | 9.77 µM (inactive) | 17.5 µM (inactive) | 0.957 µM (active) | 5.73 µM (inactive) | 13.2 µM (inactive) | 13.6 µM (inactive) | 16.5 µM (inactive) | 9.51 µM (inactive) | 11.5 µM (inactive) | 26.2 µM (inactive) | 10.2 µM (inactive) | 6.85 µM (inactive) | 23.3 µM (inactive) | 16.8 µM (inactive)
